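Tested at 5 concentrations; 48 h exposure; 96-well plates; endpoints linearly interpolated, else capped at highest concentration. The concentration for 50% growth inhibition is given as GI50. TGI: total growth inhibition.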
Experiments:
Assay in all cases: DTP human tumour cell line panel, 48 h
IGROV1 ovarian = system: IGROV1 ovarian
HOP-62 NSCLC = system: HOP-62 NSCLC
OVCAR-8 ovarian = system: OVCAR-8 ovarian
SK-OV-3 ovarian = system: SK-OV-3 ovarian
OVCAR-4 ovarian = system: OVCAR-4 ovarian
BT-549 breast = system: BT-549 breast
HCC-2998 colon = system: HCC-2998 colon
HL-60(TB) leukemia = system: HL-60(TB) leukemia
SK-MEL-5 melanoma = system: SK-MEL-5 melanoma
SK-MEL-2 melanoma = system: SK-MEL-2 melanoma
COLO 205 colon = system: COLO 205 colon
SF-268 CNS = system: SF-268 CNS
SR leukemia = system: SR leukemia
SK-MEL-28 melanoma = system: SK-MEL-28 melanoma
RPMI-8226 leukemia = system: RPMI-8226 leukemia
UACC-62 melanoma = system: UACC-62 melanoma
HOP-92 NSCLC = system: HOP-92 NSCLC
NCI-H23 lung = system: NCI-H23 lung
SW-620 colon = system: SW-620 colon
UACC-257 melanoma = system: UACC-257 melanoma
SF-295 CNS = system: SF-295 CNS
OVCAR-5 ovarian = system: OVCAR-5 ovarian
M14 melanoma = system: M14 melanoma
K-562 leukemia = system: K-562 leukemia
CCRF-CEM leukemia = system: CCRF-CEM leukemia
NCI-H460 lung = system: NCI-H460 lung
TK-10 renal = system: TK-10 renal
ACHN renal = system: ACHN renal
MDA-MB-231 breast = system: MDA-MB-231 breast
HS 578T breast = system: HS 578T breast
NCI/ADR-RES ovarian = system: NCI/ADR-RES ovarian
T-47D breast = system: T-47D breast
MALME-3M melanoma = system: MALME-3M melanoma
UO-31 renal = system: UO-31 renal
SN12C renal = system: SN12C renal
SNB-19 CNS = system: SNB-19 CNS
OVCAR-3 ovarian = system: OVCAR-3 ovarian
SNB-75 CNS = system: SNB-75 CNS
DU-145 prostate = system: DU-145 prostate
EKVX NSCLC = system: EKVX NSCLC
KM12 colon = system: KM12 colon
NCI-H226 lung = system: NCI-H226 lung
A549 NSCLC = system: A549 NSCLC
HCT-15 colon = system: HCT-15 colon
NCI-H522 lung = system: NCI-H522 lung
HT29 colon = system: HT29 colon
U251 CNS = system: U251 CNS
LOX IMVI melanoma = system: LOX IMVI melanoma
PC-3 prostate = system: PC-3 prostate
MCF7 breast = system: MCF7 breast
HCT-116 colon = system: HCT-116 colon
CAKI-1 renal = system: CAKI-1 renal
786-0 renal = system: 786-0 renal
SF-539 CNS = system: SF-539 CNS
RXF 393 renal = system: RXF 393 renal
A498 renal = system: A498 renal
MDA-N = system: MDA-N
MOLT-4 leukemia = system: MOLT-4 leukemia
MDA-MB-435 = system: MDA-MB-435

In the case of `COc1ccccc1-c1cc(=O)c2c(C)ccnc2[nH]1`, the TGI (IGROV1 ovarian) is reported as over 100 µM, the TGI (HOP-62 NSCLC) is reported as over 100 µM and the TGI (OVCAR-8 ovarian) is reported as over 100 µM. For the same compound, the TGI (SK-OV-3 ovarian) was over 100 µM, the TGI (OVCAR-4 ovarian) was over 100 µM and the TGI (BT-549 breast) was 44.3 µM. The TGI (HCC-2998 colon) was over 100 µM, the GI50 (HL-60(TB) leukemia) was 21 µM and the TGI (HL-60(TB) leukemia) was 83.7 µM. The GI50 (SK-MEL-5 melanoma) was 22.6 µM, the TGI (SK-MEL-5 melanoma) was 96.6 µM and the TGI (SK-MEL-2 melanoma) was over 100 µM. The TGI (COLO 205 colon) was 69.3 µM, the TGI (SF-268 CNS) was over 100 µM and the TGI (SR leukemia) was 64.2 µM. The TGI (SK-MEL-28 melanoma) was over 100 µM, the TGI (RPMI-8226 leukemia) was over 100 µM and the TGI (UACC-62 melanoma) was over 100 µM. The TGI (HOP-92 NSCLC) was over 100 µM, the TGI (NCI-H23 lung) was over 100 µM and the TGI (SW-620 colon) was 40.7 µM. It also gave a TGI (UACC-257 melanoma) of over 100 µM, a GI50 (SF-295 CNS) of 23.7 µM and a TGI (SF-295 CNS) of 80.1 µM. It also gave a TGI (OVCAR-5 ovarian) of over 100 µM, a TGI (M14 melanoma) of over 100 µM and a TGI (K-562 leukemia) of over 100 µM. It also gave a TGI (CCRF-CEM leukemia) of over 100 µM, a GI50 (NCI-H460 lung) of 23.9 µM and a TGI (NCI-H460 lung) of over 100 µM. It also gave a TGI (TK-10 renal) of over 100 µM, a TGI (ACHN renal) of over 100 µM and a TGI (MDA-MB-231 breast) of over 100 µM. For the same compound, the TGI (HS 578T breast) was 61.4 µM, the TGI (NCI/ADR-RES ovarian) was 53.2 µM and the TGI (T-47D breast) was over 100 µM. For the same compound, the TGI (MALME-3M melanoma) was over 100 µM, the TGI (UO-31 renal) was over 100 µM and the TGI (SN12C renal) was over 100 µM. For the same compound, the TGI (SNB-19 CNS) was over 100 µM, the GI50 (OVCAR-3 ovarian) was 12.8 µM and the TGI (OVCAR-3 ovarian) was 43.1 µM. The TGI (SNB-75 CNS) was 56.8 µM, the TGI (DU-145 prostate) was over 100 µM and the TGI (EKVX NSCLC) was over 100 µM. The TGI (KM12 colon) was over 100 µM, the TGI (NCI-H226 lung) was 98.9 µM and the TGI (A549 NSCLC) was over 100 µM. It also gave a TGI (HCT-15 colon) of over 100 µM, a TGI (NCI-H522 lung) of 43.7 µM and a TGI (HT29 colon) of over 100 µM. For the same compound, the GI50 (U251 CNS) was 35.3 µM, the TGI (U251 CNS) was over 100 µM and the TGI (LOX IMVI melanoma) was over 100 µM. The GI50 (PC-3 prostate) was 21 µM, the TGI (PC-3 prostate) was over 100 µM and the TGI (MCF7 breast) was over 100 µM. It also gave a GI50 (HCT-116 colon) of 7.58 µM, a TGI (HCT-116 colon) of 46.3 µM and a TGI (CAKI-1 renal) of over 100 µM. For the same compound, the GI50 (786-0 renal) was 59.9 µM, the TGI (786-0 renal) was over 100 µM and the TGI (SF-539 CNS) was over 100 µM. It also gave a TGI (RXF 393 renal) of over 100 µM, a TGI (A498 renal) of 85.3 µM and a GI50 (MDA-N) of 8.41 µM. For the same compound, the TGI (MDA-N) was 33.1 µM, the TGI (MOLT-4 leukemia) was over 100 µM and the GI50 (MDA-MB-435) was 6.52 µM. The TGI (MDA-MB-435) was 30.5 µM.

For `C=C1c2nc3ccccc3n2C=C(c2ccc(OC)cc2)N1c1ccccc1`, the TGI (IGROV1 ovarian) was over 100 µM, the TGI (HOP-62 NSCLC) was over 100 µM and the TGI (OVCAR-8 ovarian) was over 69.3 µM. The TGI (SK-OV-3 ovarian) was over 100 µM, the TGI (OVCAR-4 ovarian) was over 100 µM and the TGI (BT-549 breast) was 71 µM. The TGI (HCC-2998 colon) was 39.8 µM, the TGI (HL-60(TB) leukemia) was 7.93 µM and the TGI (SK-MEL-5 melanoma) was 42.2 µM. For the same compound, the TGI (SK-MEL-2 melanoma) was 42.4 µM, the TGI (COLO 205 colon) was over 70.9 µM and the TGI (SF-268 CNS) was over 100 µM. The TGI (SR leukemia) was over 24.5 µM, the TGI (SK-MEL-28 melanoma) was over 96.7 µM and the TGI (RPMI-8226 leukemia) was 45.1 µM. It also gave a TGI (UACC-62 melanoma) of over 57.6 µM, a TGI (HOP-92 NSCLC) of over 100 µM and a TGI (NCI-H23 lung) of 98.5 µM. The TGI (SW-620 colon) was over 65.4 µM, the TGI (UACC-257 melanoma) was over 100 µM and the TGI (SF-295 CNS) was over 55.6 µM. For the same compound, the TGI (OVCAR-5 ovarian) was over 100 µM, the TGI (M14 melanoma) was over 60.4 µM and the TGI (K-562 leukemia) was over 100 µM. For the same compound, the TGI (CCRF-CEM leukemia) was over 57.9 µM, the TGI (NCI-H460 lung) was over 34.5 µM and the TGI (TK-10 renal) was over 100 µM. The TGI (ACHN renal) was over 100 µM, the TGI (MDA-MB-231 breast) was over 100 µM and the TGI (HS 578T breast) was over 96.6 µM. For the same compound, the TGI (NCI/ADR-RES ovarian) was 9.64 µM, the TGI (T-47D breast) was 98.3 µM and the TGI (MALME-3M melanoma) was 49.8 µM. The TGI (UO-31 renal) was over 91.3 µM, the TGI (SN12C renal) was over 100 µM and the TGI (SNB-19 CNS) was 48.3 µM. The TGI (OVCAR-3 ovarian) was 98 µM, the TGI (SNB-75 CNS) was 58.3 µM and the TGI (DU-145 prostate) was over 100 µM. It also gave a TGI (EKVX NSCLC) of over 100 µM, a TGI (KM12 colon) of over 47.2 µM and a TGI (NCI-H226 lung) of 22.6 µM. The TGI (A549 NSCLC) was over 100 µM, the TGI (HCT-15 colon) was over 56.8 µM and the TGI (NCI-H522 lung) was 27.2 µM. The TGI (HT29 colon) was 26.7 µM, the TGI (U251 CNS) was over 100 µM and the TGI (LOX IMVI melanoma) was over 100 µM. It also gave a TGI (PC-3 prostate) of over 100 µM, a TGI (MCF7 breast) of over 63.5 µM and a TGI (HCT-116 colon) of over 100 µM. The TGI (CAKI-1 renal) was over 100 µM, the TGI (786-0 renal) was over 100 µM and the TGI (SF-539 CNS) was over 91.2 µM. It also gave a TGI (RXF 393 renal) of over 76.1 µM, a TGI (A498 renal) of over 100 µM and a TGI (MDA-N) of 8.56 µM. For the same compound, the TGI (MOLT-4 leukemia) was over 55.9 µM and the TGI (MDA-MB-435) was 4.83 µM.
